Data from patent US5430062A, “Stilbene derivatives as anticancer agents” (priority 1993, dated 1995).
Several values for one entry are separate records, joined by “and”; a condition that tells them apart may be missing. Equal entries are not always repeated.

Legend:
[1] = system: KM12 colon cancer; assay: Cytotoxicity, KM12; type: cell-based; conditions: Homo sapiens, read-out: Log10 GI50, KM12 (converted)
From the text: (§1) A total of 55 cell lines from the leukemia, non-small cell lung cancer, small cell lung cancer, colon cancer, CNS cancer, melanoma, ovarian cancer, and renal cancer panels were examined.

[2] = system: RXF-393 renal cancer; assay: Cytotoxicity, RXF-393; type: cell-based; conditions: Homo sapiens, read-out: Log10 GI50, RXF-393 (converted)
From the text: as §1

[3] = system: SNB-78 CNS cancer; assay: Cytotoxicity, SNB-78; type: cell-based; conditions: Homo sapiens, read-out: Log10 GI50, SNB-78 (converted)
From the text: as §1

[4] = system: UACC-257 melanoma; assay: Cytotoxicity, UACC-257; type: cell-based; conditions: Homo sapiens, read-out: Log10 GI50, UACC-257 (converted)
From the text: as §1

[5] = system: CAKI-1 renal cancer; assay: Cytotoxicity, CAKI-1; conditions: read-out: cytotoxicity GI50, CAKI-1, 50% growth inhibition, average of two determinations, 8640 min, Hydrochloride
[6] = system: SF-295 CNS cancer; assay: Cytotoxicity, SF-295
[7] = system: A498 renal cancer; assay: Cytotoxicity, A498; type: cell-based; conditions: Homo sapiens, read-out: Log10 GI50, A498 (converted)
From the text: as §1

[8] = system: DMS 273 small cell lung cancer; assay: Cytotoxicity, DMS 273; conditions: Hydrochloride
[9] = system: M19-MEL melanoma; assay: Cytotoxicity, M19-MEL; type: cell-based; conditions: Homo sapiens, read-out: Log10 GI50, M19-MEL (converted)
From the text: as §1

[10] = system: HT29 colon cancer; assay: Cytotoxicity, HT29 (Table XI panel); type: cell-based; conditions: Homo sapiens, HT-29; read-out: Log10 GI50, HT29 (converted)
From the text: as §1

[11] = system: RPMI-8226 leukemia; assay: Cytotoxicity, RPMI-8226; type: cell-based; conditions: Homo sapiens, read-out: Log10 GI50, RPMI-8226 (converted)
From the text: as §1

[12] = system: SK-MEL-5 melanoma; assay: Cytotoxicity, SK-MEL-5 (Table XI panel); type: cell-based; conditions: Homo sapiens, read-out: Log10 GI50, SK-MEL-5 (converted)
From the text: as §1

[13] = system: UACC-62 melanoma; assay: Cytotoxicity, UACC-62; type: cell-based; conditions: Homo sapiens, read-out: Log10 GI50, UACC-62 (converted)
From the text: as §1

[14] = system: OVCAR-3 ovarian cancer; assay: Cytotoxicity, OVCAR-3; conditions: read-out: cytotoxicity GI50, OVCAR-3, 50% growth inhibition, average of two determinations, 8640 min, Hydrochloride
[15] = system: ACHN renal cancer; assay: Cytotoxicity, ACHN; type: cell-based
From the text: as §1

[16] = system: HOP-92 non-small cell lung cancer; assay: Cytotoxicity, HOP-92; type: cell-based; conditions: Homo sapiens, read-out: Log10 GI50, HOP-92 (converted)
From the text: as §1

[17] = system: SF-268 CNS cancer; assay: Cytotoxicity, SF-268; type: cell-based; conditions: Homo sapiens, SF-268, read-out: Log10 GI50, SF-268 (converted)
From the text: as §1

[18] = system: LOX IMVI melanoma; assay: Cytotoxicity, LOX IMVI; type: cell-based; conditions: Homo sapiens, read-out: Log10 GI50, LOX IMVI (converted)
From the text: as §1

[19] = system: HOP-18 non-small cell lung cancer; assay: Cytotoxicity, HOP-18; type: cell-based; conditions: Homo sapiens, read-out: Log10 GI50, HOP-18 (converted)
From the text: as §1

[20] = system: CCRF-CBM leukemia; assay: Cytotoxicity, CCRF-CBM; type: cell-based; conditions: read-out: Log10 GI50, CCRF-CBM (converted)
From the text: as §1

[21] = system: HCT-116 colon cancer; assay: Cytotoxicity, HCT-116; type: cell-based; conditions: Homo sapiens, read-out: Log10 GI50, HCT-116 (converted)
From the text: as §1

[22] = system: SNB-19 CNS cancer; assay: Cytotoxicity, SNB-19; type: cell-based; conditions: Homo sapiens, read-out: Log10 GI50, SNB-19 (converted)
From the text: as §1

[23] = system: SK-MEL-2 melanoma; assay: Cytotoxicity, SK-MEL-2; type: cell-based; conditions: Homo sapiens, read-out: Log10 GI50, SK-MEL-2 (converted)
From the text: as §1

COc1cc(CNc2ccc(C)cc2)cc(OC)c1OC.Cl [110a, 4-Methyl-N-(3,4,5-trimethoxybenzyl)aniline Hydrochloride]
GI50 [1]: 759 nM | GI50 [2]: 112 nM | GI50 [3]: 1100 nM | GI50 [4]: > 100000 nM | GI50 [5]: 162 nM | Log10 GI50, SF-295 [6]: -6.49 | GI50 ([6]; read-out: cytotoxicity GI50, SF-295, 50% growth inhibition, average of two determinations, 8640 min, Hydrochloride, 8640 min): 233 nM | GI50 [7]: > 100000 nM | Log10 GI50, DMS 273 [8]: < -7.00 and -7.03 | GI50 ([8]; read-out: cytotoxicity GI50, DMS 273, 50% growth inhibition, average of two determinations, 8640 min, 8640 min): 104 nM | GI50 [9]: 331 nM | GI50 [10]: 347 nM | GI50 [11]: 437 nM | GI50 [12]: 912 nM | GI50 [13]: 575 nM | GI50 [14]: 214 nM | GI50 ([15]; Homo sapiens, ACHN, read-out: Log10 GI50, ACHN (converted)): < 100 nM | Log10 GI50, ACHN ([15]; Hydrochloride): -7.01 | GI50 [16]: 18600 nM | GI50 [17]: 912 nM | GI50 [18]: 851 nM | GI50 [19]: 37200 nM | GI50 [20]: 282 nM | GI50 [21]: 575 nM | GI50 [22]: 295 nM | GI50 [23]: 132 nM
